In patent EP0942721B1, “LIQUID COMPOSITION COMPRISING AN HIV PROTEASE INHIBITOR AND A C12-C18 FATTY ACID” (Abbott Laboratories, priority 1996, dated 1998) one finds bioavailability data, which are given here for two compounds.

SMILES strings stand for the structures.

This series is described as follows: Oral bioavailability studies in dogs. It counts as in vivo, beagle dogs. The following applies: dog, administered as an unformulated solid in a capsule dosage form, 5 mg/kg oral dose in dogs. As to the method:
Dogs (beagle dogs, mixed sexes, weighing 7-14 kg) were fasted overnight prior to dosing, but were permitted water ad libitum. Each dog received a 100 µg/kg subcutaneous dose of histamine approximately 30 minutes prior to dosing. Each dog received a single solid dosage form corresponding to a 5 mg/kg dose of the drug. The dose was followed by approximately 10 milliliters of water. Blood samples were obtained from each animal prior to dosing and 0.25, 0.5, 1.0,1.5, 2, 3, 4, 6, 8, 10 and 12 hours after drug administration. The plasma was separated from the red cells by centrifugation and frozen (-30°C) until analysis. Concentrations of parent drug were determined by reverse phase HPLC with low wavelength UV detection following liquid-liquid extraction of the plasma samples. The parent drug area under the curve was calculated by the trapezoidal method over the time course of the study. The absolute bioavailability of each test composition was calculated by comparing the area under the curve after oral dosing to that obtained from a single intravenous dose. Each capsule or capsule composition was evaluated in a group containing at least six dogs; the values reported are averages for each group of dogs.

For the compound `CC(C)c1nc(CN(C)C(=O)N[C@H](C(=O)N[C@@H](Cc2ccccc2)C[C@H](O)[C@H](Cc2ccccc2)NC(=O)OCc2cncs2)C(C)C)cs1` [bis-tosylate of compound III], where the note is “in vivo”, the bioavailability at 12 h was less than 2%.

`CC(C)c1nc(CN(C)C(=O)N[C@H](C(=O)N[C@@H](Cc2ccccc2)C[C@H](O)[C@H](Cc2ccccc2)NC(=O)OCc2cncs2)C(C)C)cs1` [compound III, (2S,3S,5S)-5-(N-(N-((N-Methyl-N-((2-isopropyl-4-thiazolyl)methyl)-amino)carbonyl)valinyl)amino)-2-(N-((5-thiazolyl)methoxycarbonyl)amino)-1,6-diphenyl-3-hydroxyhexane] registered a bioavailability (both sexes, beagle, plasma) of less than 2%.

As usually defined, the bioavailability is the share of a dose that reaches the circulation, judged against a reference dose that is usually intravenous. Low values mean little systemic uptake, high ones much systemic uptake.
